PMC6010002, “Synthesis, pharmacology and molecular docking on multifunctional tacrine-ferulic acid hybrids as cholinesterase inhibitors against Alzheimer’s disease” (Journal of Enzyme Inhibition and Medicinal Chemistry, 2018)
Read-outs that look alike come from different tables or passages of the source.

How the values were obtained:
[1] = biological target: T1, AChE (EC 3.1.1.7) from electric eel (Electrophorus electricus, UniProt O42275); assay: biochemical; conditions: for SI (selectivity index, AChE IC50/BuChE IC50): eeAChE IC50 / eqBuChE IC50; for IC50: eeAChE, mean ± SEM of triplicate independent experiments
T1 construct: AChE (EC 3.1.1.7, Type VI-S, from electric eel, C3389); purchased Sigma-Aldrich C3389; host or cells: electric eel (natural source)
Method: (§1) AChE (EC 3.1.1.7, Type VI-S, from electric eel, C3389) and BuChE (EC 3.1.1.8, from equine serum, C0663), 5,5’-dithiobis (2-nitrobenzoic acid) (DTNB, D218200), acetylthiocholine iodide (ATC, A5751) and butyrylthiocholine iodide (BTC, B3253) used as substrates were obtained from Sigma-Aldrich (St. Louis, MO).
(§2) The inhibitory capacity of the synthesised compounds on AChE and BuChE biological activity in this paper were evaluated according to our previously reported method. Briefly, AChE/BuChE stock solution was diluted with 0.2 M phosphate buffer pH 8.0 to give 2.5 units/mL (for electrophorus electricus (eeAChE) and equine serum (eqBuChE)). ATC/BTC iodide solution (0.075 M) was dissolved in deionized water. […] The assay solution was prepared as follows: potassium dihydrogen phosphate (1.36 g, 10 mmol) was dissolved in 100 ml of water. The pH of the solution was then adjusted to 8.0 ± 0.1 with KOH. Stock solutions of the test samples were dissolved in ethanol to give a final concentration of 10 − 4^ M when diluted to the final volume of 3.32 ml. For each compound, a dilution series of five different concentrations 10 − 5–10 − 9^9 M were prepared.
(§3) For measurement, a cuvette containing 3 mL of phosphate buffer, 100 μL of eeAChE or eqBuChE, 100 μL of DTNB, and 100 μL of the test compound solution was added in sequence. The reaction was initiated by adding 20 μL of ATC or BTC and the solution was mixed immediately. […] For the reference value, 100 μL of water was replaced for the test compound solution. For the blank control, additional 100 μL of water was also replaced for the enzyme solution. The measurement of each concentration was assayed in triplicate. GraphPad Prism 5 (GraphPad Software, Inc., La Jolla, CA) was used for data processing. The inhibition curve was fitted by plotting percentage enzyme activity (100% for the reference) versus the logarithm of test compound concentration. The half maximal inhibitory concentration (IC50) values were calculated according to the curve and the data were shown in mean ± SEM.
(§4) Inhibitory activities were presented as IC50 (nM).

[2] = biological target: T2, BuChE (EC 3.1.1.8) from horse serum (Equus caballus, UniProt P81908); assay: biochemical; conditions: eqBuChE, mean ± SEM of triplicate independent experiments
T2 construct: BuChE (EC 3.1.1.8, from equine serum, C0663); purchased Sigma-Aldrich C0663; host or cells: equine serum (natural source)
Method: as §1, §2, §3, §4

adult male ICR mice = format: in vivo; conditions: mouse, in vivo
Method: . Heparinised serum was obtained from the retrobulbar plexus 8, 22, and 36 h after the administration and were subjected to hepatotoxicity evaluation. The activity of aspartate aminotransferase (AST) and alanine aminotransferase (ALT), two indicators of liver damage, was determined by a commercial assay kit (EF551 and EF550 for ALT, EH027 and EF548 for AST, Wako, Japan). The data were analysed by Biochemical Analyzer (HITACHI 7020, Japan).
Mice were sacrificed 1 h after the collection of retrobulbar blood and livers were removed for morphological studies by using the immunohistochemical method. Two 3 mm sections of each liver extending from the hilus to the margin of the left lateral lobe were isolated using ultra-thin semiautomatic microtome (Leica RM2245, Germany) and placed in 10% buffered formaldehyde immediately, fixed for two days, and embedded together in one paraffin block by using paraffin embedding station (Leica EG1150H, Germany). Subsequently, 5 μm sections were prepared from these paraffin blocks. They were deparaffinated and stained with hematoxylin and eosin (H&E) for histopathological examinations.

[3] = system: scopolamine-induced cognition-impaired adult ICR mice; assay: Morris water maze in scopolamine-induced cognition-impaired mice; format: in vivo; conditions: 30 mg/kg oral, scopolamine 1 mg/kg i.p., mean ± SEM n = 6; for Latency to target: probe trial
Method: Behavioral studies were performed using the Morris water maze[25] according to our method reported previously. Adult male imprinting control region (ICR) mice (8–10 weeks old, weight 20–25 g) were obtained from the Yangzhou University Medical Center (Yangzhou, China). All animal handling and experimental protocols were approved by the Institutional Animal Care and Use Committee of the China Pharmaceutical University. Scopolamine hydrobromide was purchased from Aladdin Reagents (S107418, Shanghai, China).
A circular pool (120 cm in diameter, 60 cm height) which was fixed with an escape platform (10 cm diameter) and filled to a depth of 40 cm fresh water (kept at 25 °C) composed the water maze and this water maze placed in a lit room was used to evaluate the cognition function and memory capacity of mice according to our previously described method[24] . After five days of learning and memory training, a probe trial was performed on day 6. For the evaluation of cognitive function, each mouse was individually trained on a visible-platform (labeled by a small flag, 5 cm tall) for two days and was followed by a hidden-platform version (placed 1 cm below the surface of the water) of the water maze from day 3 to day 5. All mice were subjected to two training trials daily, each of which lasted for 90 s. The time for each mouse to find the platform (a successful escape) was recorded. […] On the last day (day 6), a probe trial was given to the mice in which the platform was removed from the pool and each mouse was allowed 90 s to search for the platform. The time the animals spent to reach the missing platform location and the number of times they crossed that location were recorded.
Data for the time of escape latency, the swimming trajectory, and the number of visual platform crossings were recorded by Panlab SMART 3.0 (Panlab, S.L.U, Spain) and GraphPad Prism 5 was used to evaluate the level of memory retention.

HepG2 cells = conditions: for Cell viability (% of vehicle): 24 h, MTT, mean ± SEM n = 3; for Antiproliferative activity on HepG2 cells (in words): MTT assay
Method: To determine the possible drug-induced hepatotoxicity, 10d and 10g were selected for preliminary hepatotoxicity evaluation. Heparinised serum was obtained after the treatment of the compounds at 8, 22, and 36 h, respectively. […] Additionally, immunohistochemical staining was performed on the liver tissues for the histopathological study.
Methods for Cell Viability Assay. The human hepatocellular HepG2 cells were […]
Cells were seeded into 96-well plates at a density of 3
37 °C for the following experiments. For cytotoxicity test, cells were treated with 0.05- […]
Cell viability was measured by 3-(4,5- dimethylthiazol-2-yl)-2,5-diphenyltetrazolium bromide (MTT) analysis. In brief, 15 µL of MTT was added into each well and incubated at 37 °C for 4 h. The […]
viability was calculated and presented by the percentage of vehicle-treated group.

Aβ1–42 = biological target: T3, Aβ1–42 (Homo sapiens, UniProt P05067); assay: Inhibition of self-induced Aβ1–42 aggregation (Thioflavin T assay); format: biochemical; conditions: ThT fluorescence, 24 h incubation, read-out: Inhibitory rate of compounds (25 μM) on self-induced Aβ1-42 aggregation
T3 construct: aliquots of 2 μL of Aβ1–42 (AS-64129–05 Anaspec Inc.); purchased Anaspec Inc. AS-64129–05
Method: Inhibitory effects of the compounds on self-induced Aβ1–42 aggregation were tested through a Thioflavin T (ThT)-(T3516, Sigma-Aldrich) binding assay.
The calculation of the inhibitory rate of Aβ1–42 self-induced aggregation was performed as the following equation: (1 − IFi/IFc) × 100%. IFi and IFc were the fluorescence intensities measured in the presence and absence of inhibitors, respectively, after subtracting the background fluorescence of the 5 mM ThT solution. Each compound was measured in triplicate.
A thioflavin T-based fluorometric assay was performed.

T3 sequence (P05067 672-713): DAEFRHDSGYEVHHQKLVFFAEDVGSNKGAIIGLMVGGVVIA
T1 sequence (O42275 24-633): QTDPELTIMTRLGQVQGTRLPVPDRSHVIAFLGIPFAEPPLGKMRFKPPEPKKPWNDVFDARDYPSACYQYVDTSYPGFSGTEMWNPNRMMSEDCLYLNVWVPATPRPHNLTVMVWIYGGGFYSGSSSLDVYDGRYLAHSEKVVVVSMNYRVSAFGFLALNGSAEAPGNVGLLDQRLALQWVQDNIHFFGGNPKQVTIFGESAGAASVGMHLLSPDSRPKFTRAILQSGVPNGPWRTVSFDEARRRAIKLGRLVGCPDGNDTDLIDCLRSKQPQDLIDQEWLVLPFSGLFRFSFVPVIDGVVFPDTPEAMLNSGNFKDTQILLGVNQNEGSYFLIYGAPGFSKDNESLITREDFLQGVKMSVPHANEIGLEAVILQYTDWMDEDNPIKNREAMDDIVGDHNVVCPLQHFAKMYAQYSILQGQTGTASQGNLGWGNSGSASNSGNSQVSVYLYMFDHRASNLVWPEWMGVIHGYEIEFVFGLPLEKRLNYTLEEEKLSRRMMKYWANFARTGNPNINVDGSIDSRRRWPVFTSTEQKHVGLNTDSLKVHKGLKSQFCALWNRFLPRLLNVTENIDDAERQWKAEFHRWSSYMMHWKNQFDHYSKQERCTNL
T2 sequence (P81908 whole entry): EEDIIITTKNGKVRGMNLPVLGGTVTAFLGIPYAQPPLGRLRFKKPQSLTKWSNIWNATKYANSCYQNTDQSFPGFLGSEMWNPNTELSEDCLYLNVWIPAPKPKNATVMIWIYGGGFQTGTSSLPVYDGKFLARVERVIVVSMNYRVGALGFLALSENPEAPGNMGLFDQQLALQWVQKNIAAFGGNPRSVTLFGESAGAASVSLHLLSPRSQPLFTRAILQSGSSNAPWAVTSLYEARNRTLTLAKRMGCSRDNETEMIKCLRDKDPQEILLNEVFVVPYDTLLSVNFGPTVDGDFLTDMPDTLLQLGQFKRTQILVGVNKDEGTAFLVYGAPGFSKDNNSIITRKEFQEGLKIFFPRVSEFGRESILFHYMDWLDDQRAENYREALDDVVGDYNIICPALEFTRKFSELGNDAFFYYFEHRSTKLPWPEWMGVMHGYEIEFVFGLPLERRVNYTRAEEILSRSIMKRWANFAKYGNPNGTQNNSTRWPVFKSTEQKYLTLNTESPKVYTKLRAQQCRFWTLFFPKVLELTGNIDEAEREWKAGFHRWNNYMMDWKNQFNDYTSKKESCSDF

Row | Compound | SI (selectivity index, AChE IC50/BuChE IC50) [1] | IC50 [1] [nM] | IC50 [2] [nM] | Morphologic changes in liver (histopathology, HE staining) (adult male ICR mice) | Distance to target [3] [cm] | Speed in virtual platform [3] [cm/s] | Latency to target [3] [s] | Cell viability (% of vehicle) (HepG2 cells; HepG2, 0.05 µM) | Cell viability (% of vehicle) (HepG2 cells; HepG2, 0.1 µM) | Cell viability (% of vehicle) (HepG2 cells; HepG2, 0.5 µM) | Cell viability (% of vehicle) (HepG2 cells; HepG2, 2.5 µM) | Cell viability (% of vehicle) (HepG2 cells; HepG2, 5 µM) | Cell viability (% of vehicle) (HepG2 cells; HepG2, 50 µM) | Antiproliferative activity on HepG2 cells (in words) (HepG2 cells) | inhibition at 25 µM (Aβ1–42) [%]
1 | COc1cc(/C=C/C(=O)NCCNc2c3c(nc4ccccc24)CCCC3)ccc1OCc1ccc(Br)cc1 [Compound 10d, (E)-3–(4-((4-bromobenzyl)oxy)-3-methoxyphenyl)-N-(2-((1,2,3,4-tetrahydroacridin-9-yl)amino)ethyl)acrylamide] | 0.7 | 49.5 ± 3.8 | 69.4 ± 13.4 | did not cause adverse morphologic changes in liver | 628.95 ± 87.55 | 18.82 ± 5.36 | 19.08 ± 2.56 | 129.7 ± 7.5 % of vehicle | 125.0 ± 2.3 % of vehicle | 125.6 ± 2.1 % of vehicle | 130.6 ± 2.2 % of vehicle | 13.2 ± 2.3 % of vehicle | 2.5 ± 0.3 % of vehicle | relatively strong toxic effects | 66.8
2 | COc1cc(/C=C/C(=O)NCCNc2c3c(nc4ccccc24)CCCC3)ccc1OCc1ccc(C)c(C)c1 [Compound 10g, (E)-3–(4-((3,4-dimethylbenzyl)oxy)-3-methoxyphenyl)-N-(2-((1,2,3,4-tetrahydroacridin-9-yl)amino)ethyl)acrylamide] | 0.4 | 37 | 101 ± 15.5 | did not cause adverse morphologic changes in liver | 612.85 ± 81.54 | 17.27 ± 3.39 | 24.73 ± 3.54 | 128.4 ± 5.6 % of vehicle | 124.6 ± 1.7 % of vehicle | 121.7 ± 3.5 % of vehicle | 128.9 ± 4.1 % of vehicle | 1.5 ± 0.1 % of vehicle | 1.9 ± 0.3 % of vehicle | relatively strong toxic effects | 65.5
3 | COc1cc(/C=C/C(=O)NCCNc2c3c(nc4ccccc24)CCCC3)ccc1OCc1ccc(C#N)cc1 [Compound 10j, (E)-3–(4-((4-cyanobenzyl)oxy)-3-methoxyphenyl)-N-(2-((1,2,3,4-tetrahydroacridin-9-yl)amino)ethyl)acrylamide] | 1.3 | 107 ± 29.9 | 79.8 ± 8.9 | – | – | – | – | – | – | – | – | – | – | – | 49.5
